The text below walks through data of patent US10683278B2 (JINAN UNIVERSITY, priority 2015, dated 2020).

The structures appear in SMILES notation.

Assay [1] concerns MDA-MB-231 cells. The assay can be described thus: Immunofluorescence, EMT marker proteins in TGF-β1-induced MDA-MB-231 cells. The conditions noted are these: TGF-β1 (10 ng/ml); for expression of E-cadherin / expression of N-cadherin: 96 hours; for phosphorylation level of AXL: FIGS. 3 and 4. It is filed as cell-based. The protocol:
Immunofluorescence experiments were used to determine the effect of the compounds on EMT marker proteins.
MDA-MB-231 cells were seeded onto a glass slide pre-placed in a 6-well plate, and then treated with compounds to be tested at different concentrations (0.04, 0.2, 1.5 μM) with or without TGF-β1 (10 ng/ml) for 96 hours. At room temperature, the cells were fixed with a 4% formaldehyde solution for 15 minutes, treated with 0.5% Triton X-100 for 10 minutes, and blocked with PBS solution containing 3% goat serum albumin for one hour, and then incubated with antibodies against E-cadherin and N-cadherin (1:1000; Abeam, ab10983) for 1.5 hours at room temperature. The cells were then washed with PBST and co-incubated with Alexa Fluor 555 labeled rabbit secondary antibody (4413; CST, USA) or Alexa Fluor 488 labeled murine secondary antibody (4408; CST, USA) for one hour at room temperature in the dark. Cell nuclei were stained with ProLong Gold antifade reagent (P36931; Invitrogen, USA) for 5 minutes, glass slides were covered with pieces of glass, and samples were observed using a laser scanning confocal microscope (Zeiss 710; Germany).

In assay [2] the test system is MDA-MB-231 cells. In words: Wound-healing and transwell invasion and migration of MDA-MB-231 cells. The class given is cell-based. The conditions noted are these: FIGS. 5 and 6. As to the method: Compounds were tested for their effects on EMT using routine transwell and wound-healing experiments.
MDA-MB-231 breast cancer cells were inoculated into a 6-well plate in 5×10^5 cells/well, and when the cells occupied 100% of the medium, the medium was removed, and a scratch of a constant width was drawn in the middle of the monolayer cell with a 200-μL pipette tip. The cells were washed three times with phosphate buffered saline (PBS) to remove cell debris, followed by addition of 2% FBS with or without TGF-β1 (10 ng/mL) and substances to be tested at different concentrations, and cultured in RPMI-1640 for 24 hours. At the time points of 0 and 24 hour, three scratch areas were selected, and examined and photographed using a phase contrast inverted fluorescence microscopy (CKX41; Olympus) and Image-ProPlus image capture software. The degree of scratch closure was calculated using Adobe Photoshop 7.0.1 software (Adobe Systems Inc., San Jose, Calif.). The final result is determined by averaging three results. […]
1. Cells were trypsinized and centrifuged, then resuspended and counted, and resuspended with serum-free medium, diluted to 5×10^4 to 5×10^5 cells/mL; AXL inhibitor solution at different concentrations were prepared with the cell suspension, and added into the upper chamber, and 800 μL of a medium containing 10% FBS was added into the lower chamber. […]

The next assay has as its system 4T1 cells. The assay can be described thus: In vivo metastasis of 4T1 xenografts. The conditions noted are these: BALB/c mice, 4T1 subcutaneous, oral 30 and 90 mg/kg per day, 21 days. As to the method: BALB/c mice were selected and 4T1 cells (0.5×10^6/mouse) were inoculated subcutaneously on their right sides. Twenty-four days after inoculation, the mice were randomly divided into treatment and control groups (10 in each group). The mice in each group were orally administered for 21 days, and the drug dose in the treatment group was 30 mg/kg and 90 mg/kg of compound 2-lin per day, respectively. The mice were measured for body weight and tumor volume every two days. After the mice reached the end of administration, the liver tissues of mice were excised and collected, fixed with 10% formaldehyde solution, embedded in paraffin, sectioned, and stained with eosin. Microscopic examination of micrometastases in at least three fields of view was performed and the number of liver micrometastases was calculated.
The tumor volume is calculated by the formula of TV=W^2(L/2), wherein L is the length and W is the width.

Turning to `CCc1ccc2c(c1)c(=O)c(C(=O)Nc1ccc(Oc3ncnc4[nH]cc(-c5ccccc5)c34)c(F)c1)c(C)n2C` [TL4800075, 6-ethyl-N-(3-fluoro-4-((5-phenyl-7H-pyrrolo[2,3-d]pyrimidin-4-yl)oxy)phenyl)-1,2-dimethyl-4-oxo-1,4-dihydroquinoline-3-carboxamide], in the assay on MDA-MB-231 cells [1], the “expression of E-cadherin” value is given as “significantly upregulate”, the “expression of N-cadherin” value is on record as “down-regulate” and the “phosphorylation level of AXL” value is “inhibit the phosphorylation level of AXL in a dose-dependent manner”. Moreover, the “invasion and migration of MDA-MB-231 cells induced by TGF-β1” value with MDA-MB-231 cells [2] was “inhibit the invasion and migration of breast cancer MDA-MB-231 cells induced by TGF-β1 in a dose-dependent manner”.

`CCc1ccc2c(c1)c(=O)c(C(=O)Nc1ccc(Oc3ncnc4cc(OC)c(OC)cc34)c(F)c1)c(C)n2C` [TL4800191, N-(4-(6,7-dimethoxyquinazolin-4-yloxy)-3-fluorophenyl)-6-ethyl-1,2-dimethyl-4-oxo-1,4-dihydroquinoline-3-carboxamide]: in the assay on MDA-MB-231 cells [1], the “expression of E-cadherin” value was “significantly upregulate”, the “expression of N-cadherin” value was “down-regulate” and the “phosphorylation level of AXL” value is “inhibit the phosphorylation level of AXL in a dose-dependent manner”. Further, the “invasion and migration of MDA-MB-231 cells induced by TGF-β1” value with MDA-MB-231 cells [2] is “inhibit the invasion and migration of breast cancer MDA-MB-231 cells induced by TGF-β1 in a dose-dependent manner”. In addition, in the assay with 4T1 cells, the “growth of in situ tumor” value is “no obvious inhibitory effect”; the “number and size of liver metastasis” value was “inhibit the number and size of liver metastasis in a dose-dependent manner”.
